# Source: BindingDB's records for doi:10.7270/Q2NC5ZS3 (Burnham Center For Chemical Genomics, 2012)
# Target: T1, Corticotropin-releasing factor-binding protein (Homo sapiens, UniProt P24387)
# T1 sequence (P24387 whole entry): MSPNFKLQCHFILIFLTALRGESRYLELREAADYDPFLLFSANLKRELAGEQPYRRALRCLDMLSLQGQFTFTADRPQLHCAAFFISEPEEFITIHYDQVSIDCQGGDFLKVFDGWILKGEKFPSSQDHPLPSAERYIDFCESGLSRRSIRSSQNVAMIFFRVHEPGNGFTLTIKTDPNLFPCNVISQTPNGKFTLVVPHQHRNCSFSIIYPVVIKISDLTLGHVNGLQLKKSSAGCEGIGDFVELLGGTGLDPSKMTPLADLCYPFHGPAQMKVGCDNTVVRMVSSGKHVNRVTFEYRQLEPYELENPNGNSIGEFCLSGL
row,SMILES,IC50
1,N#CC(C(=O)COc1ccc(Cl)cc1)c1nc2ccccc2s1 (centres undefined),> 20 µM
2,O=C(O)c1ccc(CN=Nc2cccc(C(F)(F)F)c2)cc1,> 20 µM
3,Cc1ccc2nc(N3C(=O)C(=O)C(C(=O)c4ccco4)C3c3cccc(O)c3)sc2c1 (centres undefined),> 20 µM
4,"Cc1cc(=O)oc2c1ccc1oc(C(N=O)c3ccccc3)c(C)c12 (centres undefined) [4,9-dimethyl-8-(N-oxidanyl-C-phenyl-carbonimidoyl)furo[2,3-h]chromen-2-one]",> 20 µM
5,"COC(=O)c1ccc(C(=O)C(C#N)c2nc3ccccc3s2)cc1 (centres undefined) [4-[(2Z)-2-(3H-1,3-benzothiazol-2-ylidene)-2-cyano-1-oxoethyl]benzoic acid methyl ester]",> 20 µM
6,"Cc1ccc2nc(N3C(=O)C(=O)C(C(=O)c4ccc(C)o4)C3c3cccc(O)c3)sc2c1 (centres undefined) [4-hydroxy-2-(3-hydroxyphenyl)-1-(6-methyl-1,3-benzothiazol-2-yl)-3-(5-methylfuran-2-carbonyl)-2H-pyrrol-5-one]",10.4 µM
7,"N#CC(C(=O)Cc1cccc2ccccc12)c1nc2ccccc2s1 (centres undefined) [(2Z)-2-(3H-1,3-benzothiazol-2-ylidene)-4-naphthalen-1-yl-3-oxobutanenitrile]",11.3 µM
8,COc1ccc(/C=N/OCC(=O)NNC2=c3cc(Br)ccc3=NC2=O)cc1 [MLS000587830],> 20 µM
9,COc1ccc(C(C)N=Nc2ccc([N+](=O)[O-])cc2S(=O)(=O)Nc2ccccc2C(=O)O)c(OC)c1 (centres undefined) [MLS002249507],9.4 µM
10,Cn1c(O)c(N=Nc2ccc([N+](=O)[O-])cc2)sc1=S [MLS002608645],1 µM
11,"CN1c2ccccc2C(=O)C(C(=S)Nc2ccc(Cl)cc2)S1(=O)=O (centres undefined) [N-(4-chlorophenyl)-4-hydroxy-1-methyl-2,2-dioxo-1,2-dihydro-2lambda~6~,1-benzothiazine-3-carbothioamide]",> 20 µM
12,O=NCc1ccc(Oc2ccc(F)cc2)c([N+](=O)[O-])c1 [N-[[4-(4-fluorophenoxy)-3-nitrophenyl]methylidene]hydroxylamine],17.5 µM
13,Cc1ccc(-n2[nH]c(C)c(CN=Nc3ccc([N+](=O)[O-])cc3[N+](=O)[O-])c2=O)cc1 [SMR000171521],15.5 µM
14,Cc1ccc(S(=O)(=O)N(CC(=O)NNC2=c3ccccc3=NC2=O)c2ccc(C)c(C)c2)cc1 [SMR000207608],> 20 µM
